Key:
[1] = Pharmacokinetics of LTB4 in rats after i.v., i.j. and s.c. administration (plasma ELISA); assay type: in vivo, female Sprague-Dawley rats; conditions: rat
Experimental: In this example, the pharmacokinetics of LTB4 in rats following administration by three distinct routes, intravenous (i.v.), intra-jejunal (i.j.) and sub-cutaneous (s.c.) was investigated.
Three groups of three female Sprague-Dawley rats (weighing ˜250 g) were used; animals were fasted for 18 hours, anesthetised with ketamine/xylazine and their jugular veins were canulated to allow for repeated blood sampling. LTB4 was administered at the dose of 50 μg/kg at the dose volume of 4 ml/kg for all routes. Blood samples (0.5 ml/sample) where taken at 0, 0.5, 1, 2, 5, 15, 30, and 60 minutes following LTB4 injection. The blood samples where immediately anti-coagulated with EDTA and transferred into an ice-water bath until centrifugation for plasma isolation. Plasma samples were stored at −80° C. until assayed for LTB4 content using a commercial ELISA (Cayman Chemicals, Ann Arbor, Mich., USA). The i.v administration (15 sec. bolus) of LTB4 was done through the tail vein; for i.j. administration, LTB4 was directly injected in the jejunum after opening of the abdominal cavity; s.c. administration was done in the dorsal region.

[2] = Forced degradation of ethanolic solutions of LTB4 (acid form and Na salt); assay type: physicochemical
Experimental: The ethanolic solution of LTB4 (acid form) (EtOH/water, 95/5) obtained from the manufacturer (Cascade Biochem, UK) was diluted with EtOH/water, 95/5 to generate ethanolic solutions of LTB4 (acid form) at 9 and 0.9 mg/ml. Ethanolic solutions of the sodium salt of LTB4 at 9 and 0.9 mg/ml were obtained by adding 1.05 equivalent of sodium hydroxide. Solutions of the sodium salt of LTB4 at the concentration of 9 and 0.9 mg/ml in 75/25 EtOH/10 mM glycine in water at pH 10.5 (sodium hydroxide), were obtained by mixing 3 volumes of solutions of the sodium salt of LTB4 at 12 and 1.2 mg/ml in EtOH/water, 95/5 with 1 volume of 40 mM glycine buffer at pH 10.5. Solutions were dispensed in 2 ml vials for storage under air in the dark at −80° C. and 40±5° C. for 17 months prior to reverse phase HPLC analysis of LTB4 and impurities as described in Example 1.

CCCCC/C=C\C[C@@H](O)/C=C/C=C/C=C\[C@@H](O)CCCC(=O)O [LTB4, 5S,12R-dihydroxy-6,8,10,14(Z,E,E,Z)-eicosatetrae-noic acid]
time of maximum plasma LTB4 level ([1]; i.j. administration, 50 μg/kg): 5 min | time of return of LTB4 plasma levels to baseline ([1]; i.j. administration, 50 μg/kg): 30 min | AUC for LTB4 plasma concentration, comparison of routes ([1]; i.v. injection, 50 μg/kg, compared with i.j. and s.c.): highest AUC | AUC for i.j. injection relative to that of i.v. LTB4 ([1]; in vivo, 50 ug/kg): 35% | impurity level ([2]; 0.9 mg/ml in 95/5 EtOH/water, 17 months at 40° C.): 62 % of AUC | level of impurities ([2]; 9.0 mg/ml in EtOH/water 95/5, 17 months at 40° C., AUC at 270 nm): 100 % of AUC

From patent US8664271B2, “Stabilized leukotriene B4 (LTB4) agent pharmaceutical formulation” (LTB4 Sweden AB, priority 2004, dated 2014)
